Laboratory results published in US5179089A, “Isoquinoline compounds, compositions and use” (Chinoin Gyogyszer es Vegyeszeti Termekek Gyara Rt., priority 1990, dated 1993).
Where a name gives a salt, the structure may show the parent alone. Read-outs that look alike come from different tables or passages of the source. Each block holds one compound with its values, some of them ahead of it.

Experiments:
[1] = test system: histamine-induced constriction of isolated tracheal smooth muscle of guinea pig; assay: Inhibition of the histamine-induced constriction of isolated tracheal smooth muscle of guinea pig; conditions: Cavia porcellus, 0.25 h, isolated guinea pig trachea, read-out: Inhibition of the histamine-induced constriction of isolated tracheal smooth muscle of guinea pig pd'2 (converted)
Experimental: I Study on the Effects Against Spasmogenic Mediators [modified method of J. C. […] The investigation on isolated organs were carried out as follows. OHF Lt/R9 guinea pigs of both sexes weighing 300 to 400 g each were anaesthetized by pentobarbital. Their trachea was removed and sectioned in the opposite side to the site of smooth muscle in longitudinal direction. Subsequently, a strip-like preparation was obtained by […] cutting. […] A rest load of 0.5 g was used. Several washings were carried out during the incubation period of 30 minutes. The change in the tension of the tracheal smooth muscle was followed by using an isometric Grass FT-03 type tensiometer sensor device. A washing was made following the cumulative dose series of the given mediator (e.g. histamine). After reaching the base line, by 15 minutes after administration of the given concentration of the inhibitory (antiasthmatic) substance to be tested, the next cumulative dose series of the mediator was administered. In the case of an inhibitory action, the strength of effect, following the second dose series of the mediator, was […] in comparison to that of the first (control) series. For characterization of strength of the competitive antagonistic effect the pA2 value was determined according to the method of […] A pd'2 value was calculated [J. M. Van Rossum: Arch. Int.

[2] = test system: carrageenin-induced rat paw edema; assay: Carrageenin-induced rat paw edema test; assay type: in vivo, rat (female CFY); conditions: for change in vivo at 50 mg/kg: Rattus norvegicus, po, 50 mg/kg (p.o.), read-out: Percentage of the protective effect; for Protective effect %: oral dose 20 mg/kg (Naproxen)
Experimental: Proc. Soc. Exp. Med. 111, 544 (1962)]. Female CFY rats weighing 100 to 120 g each were used after starvation for 24 hours. The inflammation was induced by injecting 0.1 ml of 1% carrageenin solution into the right hind paw plant. The severity of inflammation was determined by using an Ugo-Basile type plethysmometer. The measurement was carried out before and 1.5, 3 and 4.5 hours after induction of the inflammation. The animals were orally treated with the substance to be tested 1 hour before administration of carrageenin. The effect was expressed as percentage inhibition related to the control group.

[3] = test system: acetylcholine-induced constriction of the isolated tracheal smooth muscle of the guinea pig; assay: Inhibition of the acetylcholine-induced constriction of isolated tracheal smooth muscle of guinea pig; conditions: Cavia porcellus, 0.25 h, isolated guinea pig trachea, read-out: pd'2 value against acetylcholine (converted)
Experimental: (§1) I Study on the Effects Against Spasmogenic Mediators
[modified method of J. C. Castillo et al.: Exp. Ther. 90, 104 (1947)]
(§2) The investigation on isolated organs were carried out as follows.
(§3) OHF Lt/R9 guinea pigs of both sexes weighing 300 to 400 g each were anaesthetized by pentobarbital. Their trachea was removed and sectioned in the opposite side to the site of smooth muscle in longitudinal direction. Subsequently, a strip-like preparation was obtained by serrately cutting.
The organ was suspended in an organ bath containing 35 ml of Krebs solution at 37° C. bubbled through by carbogen gas (consisting of 95% of oxygen and 5% of carbon dioxide).
(§4) A rest load of 0.5 g was used. Several washings were carried out during the incubation period of 30 minutes.
(§5) The change in the tension of the tracheal smooth muscle was followed by using an isometric Grass FT-03 type tensiometer sensor device. A washing was made following the cumulative dose series of the given mediator (e.g. histamine). After reaching the base line, by 15 minutes after administration of the given concentration of the inhibitory (antiasthmatic) substance to be tested, the next cumulative dose series of the mediator was administered. In the case of an inhibitory action, the strength of effect, following the second dose series of the mediator, was […] in comparison to that of the first (control) series.
For characterization of strength of the competitive antagonistic effect the pA2 value was determined according to the method of Schield [Br. J. Pharmacol. 4, 277 (1949)]. A pd'2 value was calculated [J. M. Van Rossum: Arch. Int. Pharmacodyn 143, 317 (1963)] to characterize the noncompatitive antagonistic effectivity. The higher the pA2 or pd'2 value, respectively were, the higher was the antagonistic effect.

[4] = test system: dextran-induced rat paw edema; assay: Dextran-induced rat paw edema test; assay type: in vivo; conditions: for Percentage of inhibition: 50 mg/kg (p.o.)
Experimental: 3) Dextran-induced rat paw edema test The method of S. Gourvaisier and R. Ducrot [Arch. Int. Pharmacodyn. Ther. 102, 33 (1955)] was employed. The method described for the carrageenin edema test was followed, except that the measurements were carried out 30, 60, 90, 120 and 180 minutes after induction of the inflammation.

[5] = test system: active local anaphylactic reaction; assay: Effect influencing the active local anaphylactic reaction on rat; assay type: in vivo, rat (female OFA); conditions: for Percentage of inhibition of the active local anaphylactic reaction: oral dose of 50 mg/kg, 30th minute after induction
Experimental: 1) The effect influencing the active local anaphylactic reaction was measured according to the method of M. Koltay [Arch. Allergy App. Immun. 71, 181 (1983)].
Female OFA rats weighing 160 to 180 g each were sensitized by bovine serum albumin (BSA) adsorbed to 50 μg of Al(OH)3 gel together with the simultaneous administration of Bordatella pertussis vaccine.
The anaphylactic reaction was elicited by injecting 100 μg of BSA into the right hind paw plant in the 14th day.
The measurements were carried out before and 30 minutes after eliciting the reaction. The animals were orally treated with the compound to be tested 1 hour before the injection of BSA. The results were expressed as percentage inhibition compared to the control group (average %±S.E.M.).

[6] = test system: serotonin-induced constriction of the isolated tracheal smooth muscle of the guinea pig; assay: Inhibition of the serotonin-induced constriction of isolated tracheal smooth muscle of guinea pig; conditions: isolated guinea pig trachea; for pd'2 value against serotonin: 15 min
Experimental: as §1
[modified method of J. C.
as §2, §3, §4, §5
A pd'2 value was calculated [J. M. Van Rossum: Arch. Int. […] The higher the pA2 or pd'2 value, respectively were, the higher was the antagonistic effect.

Structure (SMILES): COc1ccc2cc([C@H](C)C(=O)O)ccc2c1 [Naproxen, reference compound]
Protective effect % ([4]; oral dose 20 mg/kg (Naproxen), 30 minutes): 16.9%
Protective effect % ([4]; oral dose 20 mg/kg (Naproxen), 60 minutes): 20.1%
Protective effect % ([4]; oral dose 20 mg/kg (Naproxen), 90 minutes): 18.9%
Protective effect % ([4]; oral dose 20 mg/kg (Naproxen), 120 minutes): 23.3%
Protective effect % ([4]; oral dose 20 mg/kg (Naproxen), 180 minutes): 21.6%
Protective effect % in the 30th minute ([5]; oral dose 30 mg/kg (Naproxen)): 2.2%
Protective effect % ([2]; 1.5 hours): 33.2%
Protective effect % ([2]; 3 hours): 44.3%
Protective effect % ([2]; 4.5 hours): 40.4%

Structure (SMILES): CCOc1cc2c(cc1OCC)C(=C(C#N)SCC(CN1CCOCC1)OC(C)=O)NCC2 (centres unmarked) [Example 24, 2-(6,7-diethoxy-1,2,3,4-tetrahydro-1-isoquinolinylidene)-2-[2-acetoxy-3-(4-morpholinyl)propyl]mercaptoacetonitrile]
IC50 [1]: 1.17 µM
IC50 ([6]; Cavia porcellus, 0.25 h, read-out: pd'2 value against serotonin (converted)): 8.91 µM
change in vivo at 50 mg/kg ([2]; 1.5 hours): -25.8%
change in vivo at 50 mg/kg ([2]; 3 hours): -20.3%
change in vivo at 50 mg/kg ([2]; 4.5 hours): -20%
IC50 [3]: 9.55 µM

Structure (SMILES): C[C@@H]1C[C@H]2[C@@H]3CCC4=CC(=O)C=C[C@]4(C)[C@@]3(F)[C@@H](O)C[C@]2(C)[C@@]1(O)C(=O)CO [Dexamethasone, dexamethasone, reference compound]
Protective effect % ([4]; oral dose 0.5 mg/kg (dexamethasone), 30 minutes): 42.7%
Protective effect % ([4]; oral dose 0.5 mg/kg (dexamethasone), 60 minutes): 36.8%
Protective effect % ([4]; oral dose 0.5 mg/kg (dexamethasone), 90 minutes): 51.1%
Protective effect % ([4]; oral dose 0.5 mg/kg (dexamethasone), 120 minutes): 52.1%
Protective effect % ([4]; oral dose 0.5 mg/kg (dexamethasone), 180 minutes): 45.5%
Protective effect % in the 30th minute ([5]; oral dose 0.5 mg/kg (Dexamethasone)): 45.5%

Structure (SMILES): CCOc1cc2c(cc1OCC)C(=C(C#N)SCC(CN1CCOCC1)OC(=O)c1ccccc1)NCC2 (centres unmarked) [Example 26, 2-(6,7-diethoxy-1,2,3,4-tetrahydro-1-isoquinolinylidene)-2-[2-benzoyloxy-3-(4-morpholinyl)-propyl]mercaptoacetonitrile hydrochloride]
IC50 [1]: 8.71 µM
IC50 [3]: 15.5 µM

Structure (SMILES): CCOc1cc2c(cc1OCC)C(=C(C#N)SCC(O)CN(CC)CC)NCC2 (centres unmarked) [Example 2, 2-(6,7-diethoxy-1,2,3,4-tetrahydro-1-isoquinolinylidene)-2-(3-diethylamino-2-hydroxypropyl)-mercaptoacetonitrile hydrochloride]
Percentage of inhibition ([4]; 30 minutes): -24%
Percentage of inhibition ([4]; 60 minutes): -21%
Percentage of inhibition ([4]; 90 minutes): -25%
Percentage of inhibition ([4]; 120 minutes): -23%
Percentage of inhibition ([4]; 180 minutes): -17%
IC50 [1]: 12.3 µM
change in vivo at 50 mg/kg ([2]; 1.5 hours): -22.9%
change in vivo at 50 mg/kg ([2]; 3 hours): -20.6%
change in vivo at 50 mg/kg ([2]; 4.5 hours): -11.3%

Structure (SMILES): Cn1c(=O)c2[nH]cnc2n(C)c1=O [theophylline, reference compound]
IC50 [1]: 1.58 µM
pd'2 value against serotonin [6]: 6.16
pd'2 value against serotonin ([6]; listed as Theophylline): 6.49
IC50 [3]: 0.372 µM

Structure (SMILES): NC1=NN(c2cccc(C(F)(F)F)c2)CC1 [BW 755C, reference compound]
Protective effect % ([4]; oral dose 50 mg/kg (BW-755C), 30 minutes): 15.4%
Protective effect % ([4]; oral dose 50 mg/kg (BW-755C), 60 minutes): 12.3%
Protective effect % ([4]; oral dose 50 mg/kg (BW-755C), 90 minutes): 17.2%
Protective effect % ([4]; oral dose 50 mg/kg (BW-755C), 120 minutes): 7.9%
Protective effect % ([4]; oral dose 50 mg/kg (BW-755C), 180 minutes): 11.3%
Protective effect % in the 30th minute ([5]; oral dose 50 mg/kg (BW 755C)): 52.9%

More lines, main results first:

IC50 [1]: 0.417 µM
IC50 [3]: 15.5 µM
Structure (SMILES): COc1cc2c(cc1OC)C(=C(C#N)SCC(CN1CCOCC1)OC(=O)c1ccccc1)NCC2 (centres unmarked) [Example 25, 2-(6,7-dimethoxy-1,2,3,4-tetrahydro-1-isoquinolinylidene)-2-[2-benzoyloxy-3-(4-morpholinyl)propyl]mercaptoacetonitrile]
change in vivo at 50 mg/kg ([2]; 1.5 hours): -26.6%
change in vivo at 50 mg/kg ([2]; 3 hours): -17.7%
change in vivo at 50 mg/kg ([2]; 4.5 hours): -16%

IC50 [1]: 1.82 µM
Structure (SMILES): COc1cc2c(cc1OC)C(=C(C#N)SCC(O)CN1CCOCC1)NCC2 (centres unmarked) [Example 17, 2-(6,7-dimethoxy-1,2,3,4-tetrahydro-1-isoquinolinylidene)-2-[2-hydroxy-3-(4-morpholinyl)propyl]mercaptoacetonitrile hydrochloride]
Percentage of inhibition ([4]; 30 minutes): 27.5%
Percentage of inhibition ([4]; 60 minutes): 32.5%
Percentage of inhibition ([4]; 90 minutes): 32.1%
Percentage of inhibition ([4]; 120 minutes): 32.4%
Percentage of inhibition ([4]; 180 minutes): 20.3%
Percentage of inhibition of the active local anaphylactic reaction [5]: -53.4%
change in vivo at 50 mg/kg ([2]; 1.5 hours): -4.2%
change in vivo at 50 mg/kg ([2]; 3 hours): 0%
change in vivo at 50 mg/kg ([2]; 4.5 hours): 0%

IC50 [1]: 26.3 µM
Structure (SMILES): N#CC(SCC(O)CN1CCCCC1)=C1NCCc2ccccc21 (centres unmarked) [Example 14, 2-(1,2,3,4-tetrahydro-1-isoquinolinylidene)-2-[2-hydroxy-3-(1-piperidinyl)propyl]mercaptoacetonitrile]
Percentage of inhibition of the active local anaphylactic reaction [5]: -44.1%
change in vivo at 50 mg/kg ([2]; 1.5 hours): -20.9%
change in vivo at 50 mg/kg ([2]; 3 hours): -20%
change in vivo at 50 mg/kg ([2]; 4.5 hours): -20%
